For experiment [1], the system named is Mycobacterium tuberculosis. Kind of experiment: Percentage inhibition against Mycobacterium tuberculosis at a concentration of 20 uM. In kind it is functional.
Experiment [2] concerns Mycobacterium tuberculosis. The experiment in a line: Inhibitory activity against Mycobacterium tuberculosis H37Ra. In kind it is functional.
The test system of experiment [3] is Mycolicibacterium smegmatis. The experiment in a line: Percentage inhibition against Rm1BCD at 20 uM.
Experiment [4] has as its system Mycolicibacterium smegmatis. The experiment in a line: Percentage inhibition against Rm1C at 20 uM.
Experiment [5] relates to Mycolicibacterium smegmatis. Kind of experiment: Percentage inhibition against Rm1D at 20 uM; NA is not active.
Experiment [6] has as its system Mycolicibacterium smegmatis. The experiment in a line: Percentage inhibition against Rm1C at 20 uM; NA is not active.
The test system of experiment [7] is Mycolicibacterium smegmatis. The experiment in a line: Percentage inhibition against Rm1D at 20 uM.

Each structure is given as a SMILES string. In brackets after ≈: the same amount, converted by molar mass. Activity calls are given as the source filed them. No cut-off for these calls is given here.

Take `CC[C@H](C)C(C(=O)OC)N1C(=O)CSC1c1ccc(N(C)C)cc1` (stereo partly specified): the inhibition – broadly, the drop in the measured response relative to a control, in per cent – at 20 µM in experiment [1] came to 110%. In addition, the MIC (as a rule, the lowest concentration found to suppress growth) in experiment [2] was above 200 µg/mL.

For the compound `COC(=O)C(CCSC)N1C(=O)CSC1c1ccc(N(C)C)cc1` (stereo unspecified), in experiment [1], the inhibition at 20 µM was determined as 100%. In addition, in experiment [2], the MIC was above 200 µg/mL.

On to `CCOC(=O)CCC(C(=O)OCC)N1C(=O)CSC1c1cccc(Oc2ccccc2)c1` (stereo unspecified), for which, in experiment [1], the inhibition at 20 µM was determined as 64%. This compound showed an MIC in experiment [2] of 50 µg/mL (≈ 109 µM).

As to `CCOC(=O)C(C)N1C(=O)CSC1c1cccc(Oc2ccccc2)c1` (stereo unspecified), the inhibition at 20 µM in experiment [1] turned out to be 51%. This compound also came in with a minimum inhibitory concentration (MIC) in experiment [2] of 50 µg/mL (≈ 135 µM).

Regarding `O=C(O)C(Cc1cc2ccccc2[nH]1)N1C(=O)CSC1c1ccc(-c2ccccc2)cc1` (stereo unspecified), the inhibition at 20 µM in experiment [1] was determined as 66.5%. This compound also came in with a minimum inhibitory concentration (MIC) in experiment [2] of 50 µg/mL (≈ 113 µM).

Regarding `CCn1c2ccccc2c2ccc(C3SCC(=O)N3C(Cc3c[nH]c4ccccc34)C(=O)OC)cc21` (stereo unspecified), the inhibition is 45% in experiment [3] and 48% in experiment [4]. Further, the inhibition result in experiment [5] is “inactive”. Moreover, the MIC in experiment [2] is above 200 µg/mL.

`CCOC(=O)C(C(C)C)N1C(=O)C(C)SC1c1ccc(-c2ccccc2)cc1` (stereo unspecified): in experiment [1], the inhibition at 20 µM was 52.5%. Besides, the lowest concentration to inhibit growth in experiment [2] (MIC) was 50 µg/mL (≈ 126 µM).

Consider `CCOC(=O)C(C(C)C)N1C(=O)C(C)SC1c1cccc(OC)c1O` (stereo unspecified), for which the inhibition at 20 µM in experiment [1] was 60%. This compound also returned an MIC in experiment [2] of 25 µg/mL (≈ 68 µM).

`CCOC(=O)C(C(C)C)N1C(=O)C(C)SC1c1ccc2c(c1)c1ccccc1n2CC` (stereo unspecified): the inhibition at 20 µM in experiment [1] turned out to be 52%. The MIC in experiment [2] was found to be 25 µg/mL (≈ 57 µM).

For `CCn1c2ccccc2c2cc(C3SC(C)C(=O)N3C(Cc3c[nH]c4ccccc34)C(=O)O)ccc21` (stereo unspecified), the inhibition at 20 µM in experiment [1] was determined as 70.5%. For the same compound, the MIC in experiment [2] amounted to 50 µg/mL (≈ 100 µM).

Turning to `COc1cc(C2SC(C)C(=O)N2C(Cc2ccc([N+](=O)[O-])cc2)C(=O)O)cc(OC)c1O` (stereo unspecified), the inhibition in experiment [3] amounted to 42%; in experiment [7], 71%. In addition, the inhibition entry in experiment [6] is “inactive”. The compound further returned an MIC in experiment [2] of 25 µg/mL (≈ 54.1 µM).

Source of the values: ChEMBL document CHEMBL1136232, “Novel inhibitors of an emerging target in Mycobacterium tuberculosis; substituted thiazolidinones as inhibitors of dTDP-rhamnose synthesis” (2003).
